Measured values as given in ChEMBL document CHEMBL1144349, “A shape-based 3-D scaffold hopping method and its application to a bacterial protein-protein interaction” (J Med Chem, 2005).

Test: Affinity for bacterial ZipA-FtsZ protein-protein interaction
Set-up: species or system Escherichia coli

Row | Kd [µM] | SMILES
1 | 73.9 | CC(=O)Nc1cccc(-c2ccc3nnc(-c4ccccc4)n3n2)c1
2 | 85.1 | CC(=O)N(C)c1cccc(-c2ccc3nnc(-c4cccnc4)n3n2)c1
